Test results from PubChem BioAssay AID248 (DTP/NCI, 2004).
“And” between values parts separate entries of the source, which are not always exact repeats. Equal values may be shown once. Toxic doses and inconclusive results are not listed. No stated cut-off is given here; in the data, active means T/C of 150% or more; inactive means T/C below 125%.

System: L1210 leukemia ip in BDF1 mice, survival T/C
Assay: NCI In Vivo Anticancer Drug Screen. Data for tumor model L1210 Leukemia (intraperitoneal) in B6D2F1 (BDF1) mice
Settings: endpoint: mean survival time, higher = longer survival
Procedure, shortened: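 Read-out is survival time, reported as the treated-group measurement over the vehicle-control measurement.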

[1] = dose: 100.0 mg/kg/injection, schedule: Q04DX003 (ip), vehicle: saline with Tween-80
[2] = dose: 100.0 mg/kg/injection, schedule: Q04DX003 (ip), vehicle: saline
[3] = dose: 200.0 mg/kg/injection, schedule: Q04DX003 (ip), vehicle: saline
[4] = dose: 50.0 mg/kg/injection, schedule: Q01DX009 (ip), vehicle: Klucel (hydroxypropylcellulose) (HPC)
[5] = dose: 100.0 mg/kg/injection, schedule: Q01DX009 (ip), vehicle: Klucel (hydroxypropylcellulose) (HPC)
[6] = dose: 100.0 mg/kg/injection, schedule: Q04DX003 (ip), vehicle: Klucel (hydroxypropylcellulose) (HPC)
[7] = dose: 200.0 mg/kg/injection, schedule: Q01DX009 (ip), vehicle: Klucel (hydroxypropylcellulose) (HPC)
[8] = dose: 100.0 mg/kg/injection, schedule: Q01DX001 (ip), vehicle: saline
[9] = dose: 200.0 mg/kg/injection, schedule: Q01DX001 (ip), vehicle: saline
[10] = dose: 400.0 mg/kg/injection, schedule: Q01DX001 (ip), vehicle: saline
[11] = dose: 6.25 mg/kg/injection, schedule: Q01DX001 (ip), vehicle: Klucel (hydroxypropylcellulose) (HPC)
[12] = dose: 12.5 mg/kg/injection, schedule: Q01DX001 (ip), vehicle: Klucel (hydroxypropylcellulose) (HPC)
[13] = dose: 25.0 mg/kg/injection, schedule: Q01DX001 (ip), vehicle: Klucel (hydroxypropylcellulose) (HPC)

Measured: T/C

Cc1ccc(NC(=O)Nc2ccc(C)c(NC(=O)Nc3ccc(C)c(Cl)c3)c2)cc1Cl
inactive: dose: 50.0 mg/kg/injection, schedule: Q01DX009 (ip), vehicle: saline with Tween-80 90 % of control | dose: 100.0 mg/kg/injection, schedule: Q01DX009 (ip), vehicle: saline with Tween-80 88 % of control | [1] 88 % of control | dose: 200.0 mg/kg/injection, schedule: Q01DX009 (ip), vehicle: saline with Tween-80 94 % of control

CCOC(=O)N1Cc2cc3cc(OC)ccc3nc2C1
inactive: dose: 50.0 mg/kg/injection, schedule: Q01DX009 (ip), vehicle: acetone 98 % of control | dose: 100.0 mg/kg/injection, schedule: Q01DX009 (ip), vehicle: acetone 95 % of control | [2] 94 % of control | dose: 200.0 mg/kg/injection, schedule: Q01DX009 (ip), vehicle: acetone 95 % of control | [3] 89 % of control | dose: 400.0 mg/kg/injection, schedule: Q04DX003 (ip), vehicle: saline 105 % of control

Cc1cccc(SC(=O)Nc2cccc(Cl)c2C)c1
inactive: dose: 25.0 mg/kg/injection, schedule: Q01DX009 (ip), vehicle: gum acacia 100 % of control | dose: 50.0 mg/kg/injection, schedule: Q01DX009 (ip), vehicle: gum acacia 99 % of control | dose: 100.0 mg/kg/injection, schedule: Q01DX009 (ip), vehicle: gum acacia 97 % of control and 89 % of control

CN(C)C(=O)C1Cc2ccccc2CC1C(=O)N(C)C (stereo not given)
inactive: [4] 97 % of control | [5] 97 % of control | [6] 101 % of control | [7] 101 % of control | dose: 200.0 mg/kg/injection, schedule: Q04DX003 (ip), vehicle: Klucel (hydroxypropylcellulose) (HPC) 102 % of control | dose: 400.0 mg/kg/injection, schedule: Q04DX003 (ip), vehicle: Klucel (hydroxypropylcellulose) (HPC) 97 % of control

CCCCNP(=S)(NCCCC)c1ccccc1
inactive: [8] 98 % of control | [9] 93 % of control | [10] 95 % of control

Cc1cc(C(N)=O)c(C#N)c(=O)[nH]1
inactive: dose: 75.0 mg/kg/injection, schedule: Q01DX001 (ip), vehicle: steriod suspending solution 94 % of control | dose: 150.0 mg/kg/injection, schedule: Q01DX001 (ip), vehicle: steriod suspending solution 95 % of control

c1ccc2sc(SSN3CCOCC3)nc2c1
inactive: [4] 97 % of control | [5] 113 % of control | [2] 101 % of control | [7] 91 % of control | [3] 92 % of control

Cc1cc(N=Nc2cccc([N+](=O)[O-])c2)cc(C(=O)O)c1O
inactive: [11] 102 % of control | [12] 94 % of control | [13] 89 % of control

O=C(CCCN1CCC(O)(c2cccc(C(F)(F)F)c2)CC1)c1ccc(F)cc1
inactive: dose: 0.04 mg/kg/injection, schedule: Q03HX024 (ip), vehicle: Klucel (hydroxypropylcellulose) (HPC) 102 % of control | dose: 0.09 mg/kg/injection, schedule: Q03HX024 (ip), vehicle: Klucel (hydroxypropylcellulose) (HPC) 107 % of control | dose: 0.19 mg/kg/injection, schedule: Q03HX024 (ip), vehicle: Klucel (hydroxypropylcellulose) (HPC) 105 % of control | dose: 0.39 mg/kg/injection, schedule: Q03HX024 (ip), vehicle: Klucel (hydroxypropylcellulose) (HPC) 107 % of control | dose: 0.78 mg/kg/injection, schedule: Q03HX004 (ip), vehicle: Klucel (hydroxypropylcellulose) (HPC) 96 % of control | dose: 0.78 mg/kg/injection, schedule: Q03HX024 (ip), vehicle: Klucel (hydroxypropylcellulose) (HPC) 107 % of control | dose: 1.56 mg/kg/injection, schedule: Q01DX009 (ip), vehicle: Klucel (hydroxypropylcellulose) (HPC) 111 % of control | dose: 1.56 mg/kg/injection, schedule: Q03HX004 (ip), vehicle: Klucel (hydroxypropylcellulose) (HPC) 91 % of control | dose: 1.56 mg/kg/injection, schedule: Q03HX024 (ip), vehicle: Klucel (hydroxypropylcellulose) (HPC) 97 % of control | dose: 2.0 mg/kg/injection, schedule: Q01DX009 (ip), vehicle: Klucel (hydroxypropylcellulose) (HPC) 100 % of control | dose: 3.12 mg/kg/injection, schedule: Q01DX009 (ip), vehicle: Klucel (hydroxypropylcellulose) (HPC) 107 % of control and 122 % of control | dose: 3.12 mg/kg/injection, schedule: Q03HX024 (ip), vehicle: Klucel (hydroxypropylcellulose) (HPC) 100 % of control and 86 % of control | dose: 3.12 mg/kg/injection, schedule: Q04DX003 (ip), vehicle: Klucel (hydroxypropylcellulose) (HPC) 91 % of control and 101 % of control | dose: 4.0 mg/kg/injection, schedule: Q01DX009 (ip), vehicle: Klucel (hydroxypropylcellulose) (HPC) 92 % of control | [11] 106 % of control | dose: 6.25 mg/kg/injection, schedule: Q01DX009 (ip), vehicle: Klucel (hydroxypropylcellulose) (HPC) 110 % of control | dose: 6.25 mg/kg/injection, schedule: Q04DX003 (ip), vehicle: Klucel (hydroxypropylcellulose) (HPC) 100 % of control and 102 % of control and 108 % of control | [12] 106 % of control | dose: 12.5 mg/kg/injection, schedule: Q01DX009 (ip), vehicle: Klucel (hydroxypropylcellulose) (HPC) 121 % of control | dose: 12.5 mg/kg/injection, schedule: Q04DX003 (ip), vehicle: Klucel (hydroxypropylcellulose) (HPC) 94 % of control and 103 % of control | dose: 18.75 mg/kg/injection, schedule: Q01DX001 (ip), vehicle: Klucel (hydroxypropylcellulose) (HPC) 91 % of control | [13] 104 % of control and 119 % of control and 123 % of control | dose: 25.0 mg/kg/injection, schedule: Q01DX009 (ip), vehicle: Klucel (hydroxypropylcellulose) (HPC) 91 % of control | dose: 25.0 mg/kg/injection, schedule: Q04DX003 (ip), vehicle: Klucel (hydroxypropylcellulose) (HPC) 107 % of control and 117 % of control | dose: 37.5 mg/kg/injection, schedule: Q01DX001 (ip), vehicle: Klucel (hydroxypropylcellulose) (HPC) 103 % of control | dose: 50.0 mg/kg/injection, schedule: Q01DX001 (ip), vehicle: Klucel (hydroxypropylcellulose) (HPC) 123 % of control | [4] 92 % of control | dose: 50.0 mg/kg/injection, schedule: Q04DX003 (ip), vehicle: Klucel (hydroxypropylcellulose) (HPC) 97 % of control and 116 % of control | dose: 75.0 mg/kg/injection, schedule: Q01DX001 (ip), vehicle: Klucel (hydroxypropylcellulose) (HPC) 91 % of control | dose: 100.0 mg/kg/injection, schedule: Q01DX001 (ip), vehicle: Klucel (hydroxypropylcellulose) (HPC) 110 % of control and 115 % of control and 121 % of control | [6] 116 % of control | dose: 150.0 mg/kg/injection, schedule: Q01DX001 (ip), vehicle: Klucel (hydroxypropylcellulose) (HPC) 100 % of control

COc1ccc(C(C(C(C)=O)C(C)=O)C(C(C)=O)C(C)=O)cc1
inactive: [1] 100 % of control | dose: 200.0 mg/kg/injection, schedule: Q04DX003 (ip), vehicle: saline with Tween-80 93 % of control

CCOC(=O)C(CO)(CO)C(=O)OCC
inactive: dose: 100.0 mg/kg/injection, schedule: Q01DX009 (ip), vehicle: saline 106 % of control | dose: 200.0 mg/kg/injection, schedule: Q01DX009 (ip), vehicle: saline 92 % of control | dose: 400.0 mg/kg/injection, schedule: Q01DX009 (ip), vehicle: saline 100 % of control

CC(C)(C)C1=CC(=O)C(Cl)(C(C)(C)C)C(Cl)C1=O (stereo not given)
inactive: dose: 100.0 mg/kg/injection, schedule: Q01DX001 (ip), vehicle: saline with Tween-80 97 % of control | dose: 200.0 mg/kg/injection, schedule: Q01DX001 (ip), vehicle: saline with Tween-80 90 % of control

O=[N+]([O-])c1ccc(S(=O)(=O)n2cccc2)cc1
inactive: dose: 50.0 mg/kg/injection, schedule: Q01DX001 (ip), vehicle: saline 98 % of control | [8] 95 % of control | [9] 95 % of control | [10] 98 % of control
